Measurements as given in patent publication US4711886A, “β-lactam derivatives as anti-inflammatory and antidegenerative agents” (Merck & Co., Inc., priority 1984, dated 1987).
Like-named read-outs stand apart in the source and are kept apart here.

Target: T1, Human Polymorphonuclear Leukocyte Elastase (Homo sapiens, UniProt P08246)
T1 construct: Crude extract of human polymorphonuclear leukocytes (PMN) containing elastase activity; endogenous in cells; host or cells: human polymorphonuclear leukocytes (crude extract)
T1 sequence (P08246 30-247 limits assumed): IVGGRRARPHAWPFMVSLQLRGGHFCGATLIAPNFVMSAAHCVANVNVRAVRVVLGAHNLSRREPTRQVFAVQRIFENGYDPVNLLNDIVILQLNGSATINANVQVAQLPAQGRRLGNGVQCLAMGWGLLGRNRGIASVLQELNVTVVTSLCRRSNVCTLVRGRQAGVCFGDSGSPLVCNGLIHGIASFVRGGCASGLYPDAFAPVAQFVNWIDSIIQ
Experiment: Inhibition of human polymorphonuclear leukocyte elastase via hydrolysis of N-t-Boc-alanyl-alanyl-prolyl-alanine-p-nitroanilide
Format: biochemical
Conditions: 50% inhibition of enzyme activity 2 minutes after zero time, crude PMN extract, Boc-AAPAN substrate, pH 7.5
Method: Enzyme Assays for the Inhibition of Human Polymorphonuclear Leukocyte Elastase Via Hydrolysis of N-t-Boc-alanyl-alanyl-prolylalanine-p-nitroanilide
0.05M TES (N-tris[hydroxymethyl]methyl-2-amino-ethanesulfonic acid) buffer, pH 7.5.
0.2 mM N-t-Boc-alanyl-alanyl-prolyl-alanine-p-nitroanilide (Boc-AAPAN).
To prepare substrate, the solid (m.w. 550) was first dissolved in 10.0 ml DMSO. Buffer at pH 7.5 was then added to a final volume of 100 ml.
Crude extract of human polymorphonuclear leukocytes (PMN) containing elastase activity.
Inhibitors (β-lactam derivatives) to be tested dissolved in DMSO just before use.
To 1.0 ml of 0.2 mM Boc-AAPAN in a cuvette, 0.01-0.1 ml of DMSO with or without inhibitor was added. After mixing, a measurement was taken at 410 mμ to detect any spontaneous hydrolysis due to presence of test compound. 0.05 Milliliters of PMN extract was then added and the ΔOD/min at 410 mμ was measured and recorded. Beckman model 35 spectrophotometer was used.
The elastase activity in the crude PMN extract may vary from one preparation to another. A control of each new batch is run, and the volume added in the assay procedure is adjusted according to activity.

[1] = Table III, penems, read-out: IC50 (converted)

Structure (SMILES)	IC50 [1] [µM]	other results
CCSC1=C(C(=O)OCc2ccc([N+](=O)[O-])cc2)N2C(=O)C(C(C)OC(=O)OCc3ccccc3)C2S1 (stereo not shown)	0.367	–
CCSC1=C(C(=O)OCc2ccc([N+](=O)[O-])cc2)N2C(=O)C(C(C)O)C2S1 (stereo not shown)	4.87	–
O=C(OCc1ccccc1)C1C(=CCO)OC2CC(=O)N21 (stereo not shown) [B1 = CH2 C6 H5]	–	IC50 (Table IV, clavulanic acid series, read-out: IC50 (converted)): 10.4 µM
O=C(O)[C@H]1/C(=C/CO)O[C@@H]2CC(=O)N21 [clavulanic acid, reference compound]	–	IC50 (Table IV, clavulanic acid series): inactive

Second part, led by results:

IC50 [1] [µM]	Structure (SMILES)	other results
11	COC1C(=O)N2C(C(=O)OCc3ccccc3)=C(COC(C)=O)SC12 (stereo not shown)	–
6.55	CCOC1=C(C(=O)OCc2ccccc2)N2C(=O)CC2S1 (stereo not shown)	–
14.5	CC1=C(C(=O)OCc2ccccc2)N2C(=O)C[C@H]2S1 [R1 = H, n = 0, M = CH3, B = OCH2 C6 H5, benzyl 2-methylpenem-3-carboxylate]	–
